Source: article PMC8222713, “Variation of Two S3b Residues in KV4.1–4.3 Channels Underlies Their Different Modulations by Spider Toxin κ-LhTx-1” (Frontiers in Pharmacology, 2021)
Where a SMILES comes first, the peptide text is derived from it. Bridges are numbered along the chain shown (N, C = ends).

Assays:
[1] = test system: KV4.1/280VMTN chimeric channel; test: Whole-cell patch clamp, KV4.1/280VMTN chimera in CHO-K1 cells; type: cell-based, mouse; conditions: mean ± SEM
Procedure: (§1) The cDNA of hKV1.1, hKV1.3, rKV1.4, hKV1.5, rKV2.1, hKV3.1–3.4, mKV4.1, rKV4.2, and rKV4.3 were subcloned in the eukaryotic expression vector pCDNA3.1 or pCMV-blank. Channel mutants were made by a site-directed mutation method. Briefly, a pair of oppositely directed primers with 15 bp overlap at their 5′ ends and the designed mutation site were used to amplify the parental channel plasmid, then the PCR mix was treated with DpnI to remove the template. 10 μL digestion mix was directly used to transform 100 μL DH5α chemical competent cells. The correct mutation made by this procedure was finally confirmed by DNA sequencing. CHO-K1 cells (ATCC® CCL-61™) were grown in DMEM-F12 mixed medium (1:1) supplemented with 10% FBS and maintained in standard conditions (saturated humidity, 37°C, 5% CO2). Channel plasmid was co-transfected with pEGFP-N1 (encodes the green fluoresence protein) into CHO-K1 cells using lipofectamine 2000 following the manufacturer’s instructions. 4–6 h after transfection, cells were seeded onto poly-lysine (PLL) coated coverslips, and 24–36 h later, transfected cells were ready for patch-clamp analysis. It should be note that KV4.2 and its mutants were also co-expressed with hKChIP1 to promote their functional expressions.
(§2) Whole-cell patch clamp recording was performed in an electrophysiology platform equipped with MultiClamp 700B amplifier and Axon Digidata 1550 AD/DA convertor (Axon Instruments, Irvine, CA, United States). Data were acquired using the pClamp software (Axon Instruments, Irvine, CA, United States). All experiments were performed at room temperature. The bath solution contains (in mM): 140 NaCl, 5 KCl, 1 MgCl2, 2 CaCl2, 10 glucose, and 10 HEPES (pH = 7.3). The pipette solution contains (in mM): 140 KCl, 2.5 MgCl2, 11 EGTA, and 10 HEPES (pH = 7.3). Series resistance was kept below 10 MΩ and compensated to 80%. The concentration–response curves were fitted by a Hill logistic equation to estimate the potency (IC50) of the toxin. The whole cell conductance (G) at each depolarizing voltage (V) was determined using the equation: G = I/(V−Vrev), where I and Vrev represents the current amplitude and the reversal potential, respectively. In the present study, Vrev for K^+ current is determined to be −85.61 mV using the Nernst equation. G-V curve was obtained by plotting the normalized G as a function of V and fitted by the Boltzmann equation: y = 1/{1 + exp [(Va−V)/K]}, in which Va, V, and K represents half-maximum activation voltage, test voltage and slope factor, respectively. The steady-state fast inactivation of KV4 channels was measured using a classical two-pulses protocol: cell was held at −120 mV, and a train of conditional voltages (−120–40 mV, in 10 mV increment, 1,000 ms) were applied to induce channel inactivation, followed by a +60 mV test pulse (300 ms) to assess the proportion of non-inactivated channels; the sweep interval was set to 10 s. Currents at the test pulse (I) were normalized to the maximum value (Imax) and plotted as a function of the conditional voltage (V), the curve was fitted by the Boltzmann equation: I/Imax = A + (1−A)/{1 + exp [(V−Vh)/K]}, where Vh is the half-maximum inactivation voltage, A represents the minimum channel availability, and K is the slope factor. Gating currents of KV4.1–4.3 channels were measured as previously reported ([Tilley et al., 2019]). Briefly, the ionic pore currents were abolished by replacing K^+ with NMDG^+ in the pipette solution, and 10 µM Cs^+ was present in the bath solution to occupy the selectivity filter of KV channels to prevent decay of the gating currents during recording.
(§3) Data were presented as MEAN ± SEM, n represents the number of separate experimental cells. Data were analyzed using the software Clampfit 10.5 (Axon Instruments, Irvine, CA, United States), Graphpad Prism 5.01 (GraphPad Software, La Jolla, CA, United States) and Excel 2010 (Microsoft Corporation, Redmond, WA, United States). […]

[2] = test system: KV4.2/280PK (T280P/D281K double mutant); test: Whole-cell patch clamp, KV4.2/280PK (with hKChIP1) in CHO-K1 cells; type: cell-based, rat
Procedure: as §1, §2, §3

[3] = test system: KV4.2 channel gating currents; test: Gating current recording, KV4.2; type: cell-based, rat
Procedure: The cDNA of hKV1.1, hKV1.3, rKV1.4, hKV1.5, rKV2.1, hKV3.1–3.4, mKV4.1, rKV4.2, and rKV4.3 were subcloned in the eukaryotic expression vector pCDNA3.1 or pCMV-blank. Channel mutants were made by a site-directed mutation method. Briefly, a pair of oppositely directed primers with 15 bp overlap at their 5′ ends and the designed mutation site were used to amplify the parental channel plasmid, then the PCR mix was treated with DpnI to remove the template. 10 μL digestion mix was directly used to transform 100 μL DH5α chemical competent cells. The correct mutation made by this procedure was finally confirmed by DNA sequencing. […] 4–6 h after transfection, cells were seeded onto poly-lysine (PLL) coated coverslips, and 24–36 h later, transfected cells were ready for patch-clamp analysis. […]
Whole-cell patch clamp recording was performed in an electrophysiology platform equipped with MultiClamp 700B amplifier and Axon Digidata 1550 AD/DA convertor (Axon Instruments, Irvine, CA, United States). […] The whole cell conductance (G) at each depolarizing voltage (V) was determined using the equation: G = I/(V−Vrev), where I and Vrev represents the current amplitude and the reversal potential, respectively. In the present study, Vrev for K^+ current is determined to be −85.61 mV using the Nernst equation. […] Gating currents of KV4.1–4.3 channels were measured as previously reported ([Tilley et al., 2019]). […]

[4] = 10 μM κ-LhTx-1, two-pulse protocol, n = 5
[5] = 10 μM κ-LhTx-1, G-V, mean ± SEM, n = 6
[6] = 10 μM κ-LhTx-1, two-pulse protocol, mean ± SEM, n = 5

## CC[C@H](C)[C@@H]1NC(=O)[C@H](CCC(N)=O)NC(=O)[C@@H]2CSSC[C@@H]3NC(=O)[C@H](CC(C)C)NC(=O)[C@H](CC(N)=O)NC(=O)[C@H](CCSC)NC(=O)[C@H](Cc4c[nH]c5ccccc45)NC(=O)[C@H](CO)NC(=O)[C@H](C)NC(=O)[C@@H](NC(=O)[C@H](CCC(=O)O)NC(=O)[C@H](CCC(N)=O)NC(=O)[C@H](C)NC(=O)[C@H](CC(=O)O)NC(=O)[C@@H](N)CCC(=O)O)CSSC[C@H](NC(=O)[C@H](CSSC[C@@H](C(=O)N[C@@H](CCCCN)C(=O)N[C@@H](Cc4ccc(O)cc4)C(=O)N[C@@H](CCCCN)C(=O)N[C@@H](CC(C)C)C(N)=O)NC(=O)[C@H](Cc4c[nH]c5ccccc45)NC1=O)NC(=O)[C@H](CCCCN)NC(=O)[C@H](CCCCN)NC(=O)[C@H](CCC(=O)O)NC(=O)CNC3=O)C(=O)N[C@@H](CCC(=O)O)C(=O)NCC(=O)N[C@@H](Cc1ccc(O)cc1)C(=O)N[C@@H](C(C)C)C(=O)N2 [κ-LhTx-1] (H-EDAQECASWMNLCGEKKCCEGYVCQIWCKYKL-NH2; disulfide 6-19, 13-24, 18-28 (inferred); N-terminus and C-terminus assumed)
[1]; 10 μM κ-LhTx-1, G-V, n = 5
  Va (steady-state activation): 58.61 ± 1.63 mV
  k, slope factor (steady-state activation): 19.00 ± 0.81 mV
[1]; [4]
  Vh (steady-state inactivation): -44.55 ± 2.07 mV
  k, slope factor (steady-state inactivation): 9.86 ± 1.33 mV
[1]; Va shift by 10 μM κ-LhTx-1 vs control
  ∆Va (steady-state activation): 61.44 ± 1.98 mV
[1]; Vh shift by 10 μM κ-LhTx-1 vs control
  ∆Vh (steady-state inactivation): 13.52 ± 2.24 mV
[1]; inhibition ratio at +100 mV, 10 μM
  inhi%(min): −2.82 ± 3.37%
[2]; 10 μM
  ∆Va and inhi%(min) vs KV4.1: not significantly different from those in KV4.1
[2]; [5]
  Va (steady-state activation): 82.17 ± 1.67 mV
  k, slope factor (steady-state activation): 13.22 ± 1.15 mV
[2]; [6]
  Vh (steady-state inactivation): -9.93 ± 2.94 mV
  k, slope factor (steady-state inactivation): 11.46 ± 1.10 mV
[2]; Va shift by 10 μM κ-LhTx-1 vs control, mean ± SEM
  ∆Va (steady-state activation): 102.8 ± 3.22 mV
[2]; Vh shift by 10 μM κ-LhTx-1 vs control, mean ± SEM
  ∆Vh (steady-state inactivation): 43.66 ± 3.77 mV
[3]; KV4.2, holding −100 mV, 20 ms to +30 mV, n = 5–6
  inhibition of gating charge (Q) movement, 500 nM vs 10 µM: inhibited essentially the same proportion of gating charge movement
[3]; KV4.2, n = 5–6
  gating current inhibition: inhibited the gating currents
